Results taken from the CheMixHub viscosity set.
± gives the uncertainty stated by the source.

Experiment: xn = mol fraction of the nth substance listed

C1CC[C@H]2CCCC[C@H]2C1 + CC1CCCCC1
viscosity [mPa·s], 100 kPa
Settings	x2 = 0.125	x2 = 0.25	x2 = 0.375	x2 = 0.5	x2 = 0.625	x2 = 0.75	x2 = 0.875
293.15 K	2.749 ± 0.07	2.287 ± 0.056	1.867 ± 0.046	1.541 ± 0.037	1.3 ± 0.031	1.076 ± 0.025	0.894 ± 0.021
303.15 K	2.241 ± 0.057	1.912 ± 0.047	1.567 ± 0.038	1.312 ± 0.031	1.096 ± 0.026	0.935 ± 0.022	0.776 ± 0.018
313.15 K	1.858 ± 0.046	1.6 ± 0.039	1.326 ± 0.032	1.123 ± 0.027	0.944 ± 0.022	0.824 ± 0.019	0.674 ± 0.015
323.15 K	1.578 ± 0.039	1.367 ± 0.033	1.168 ± 0.028	0.986 ± 0.023	0.837 ± 0.02	0.701 ± 0.016	0.604 ± 0.014

CC(CC(C)(C)C)CC(C)(C)CC(C)(C)C (stereo not given) + CC1CCCCC1
viscosity [mPa·s], 100 kPa
Settings	x2 = 0.125	x2 = 0.25	x2 = 0.375	x2 = 0.5	x2 = 0.625	x2 = 0.75	x2 = 0.875
293.15 K	3.188 ± 0.082	2.761 ± 0.068	2.275 ± 0.056	1.89 ± 0.046	1.52 ± 0.037	1.244 ± 0.029	0.967 ± 0.023
303.15 K	2.553 ± 0.065	2.272 ± 0.057	1.864 ± 0.046	1.556 ± 0.038	1.283 ± 0.031	1.047 ± 0.025	0.834 ± 0.019
313.15 K	2.1 ± 0.053	1.886 ± 0.047	1.574 ± 0.038	1.32 ± 0.032	1.096 ± 0.026	0.908 ± 0.021	0.725 ± 0.017
323.15 K	1.766 ± 0.044	1.538 ± 0.038	1.329 ± 0.032	1.136 ± 0.027	0.953 ± 0.022	0.802 ± 0.019	0.641 ± 0.015

CCCC(C)O (stereo not given) + CC1CCCCC1
viscosity [mPa·s], 100 kPa
Settings	x2 = 0.081	x2 = 0.16	x2 = 0.2399	x2 = 0.3501	x2 = 0.4399	x2 = 0.56	x2 = 0.6499	x2 = 0.7401	x2 = 0.8499	x2 = 0.94
293.15 K	3.09 ± 0.37	2.46 ± 0.3	1.96 ± 0.24	1.48 ± 0.18	1.23 ± 0.15	1.05 ± 0.13	0.98 ± 0.12	0.93 ± 0.11	0.88 ± 0.11	0.8 ± 0.1
298.15 K	2.56 ± 0.31	2.05 ± 0.25	1.66 ± 0.2	1.26 ± 0.15	1.06 ± 0.13	0.92 ± 0.11	0.86 ± 0.1	0.82 ± 0.1	0.79 ± 0.1	0.73 ± 0.09
303.15 K	2.15 ± 0.26	1.74 ± 0.21	1.43 ± 0.17	1.11 ± 0.13	0.95 ± 0.11	0.83 ± 0.1	0.79 ± 0.1	0.77 ± 0.09	0.73 ± 0.09	0.68 ± 0.08
308.15 K	1.83 ± 0.22	1.5 ± 0.18	1.24 ± 0.15	0.99 ± 0.12	0.86 ± 0.1	0.75 ± 0.09	0.71 ± 0.09	0.69 ± 0.08	0.67 ± 0.08	0.63 ± 0.08
313.15 K	1.57 ± 0.19	1.31 ± 0.16	1.1 ± 0.13	0.89 ± 0.11	0.78 ± 0.09	0.7 ± 0.08	0.67 ± 0.08	0.65 ± 0.08	0.63 ± 0.08	0.59 ± 0.07
318.15 K	1.35 ± 0.16	1.13 ± 0.14	0.96 ± 0.12	0.8 ± 0.1	0.72 ± 0.09	0.66 ± 0.08	0.64 ± 0.08	0.62 ± 0.07	0.6 ± 0.07	0.57 ± 0.07
323.15 K	1.17 ± 0.14	1 ± 0.12	0.86 ± 0.1	0.72 ± 0.09	0.66 ± 0.08	0.61 ± 0.07	0.58 ± 0.07	0.57 ± 0.07	0.56 ± 0.07	0.54 ± 0.07

COCCO + CC1COC(=O)O1
viscosity [mPa·s], 101.33 kPa
Settings	298.15 K	308.15 K	318.15 K
x1 = 0.0271	2.41 ± 0.018	–	–
x1 = 0.0632	2.298 ± 0.029	1.913 ± 0.024	1.612 ± 0.021
x1 = 0.0927	2.24 ± 0.017	–	–
x1 = 0.1045	2.193 ± 0.027	1.824 ± 0.023	1.541 ± 0.02
x1 = 0.1523	2.104 ± 0.026	1.756 ± 0.022	1.484 ± 0.019
x1 = 0.1824	2.057 ± 0.015	–	–
x1 = 0.2117	2.004 ± 0.025	1.679 ± 0.021	1.423 ± 0.018
x1 = 0.2527	1.95 ± 0.025	1.634 ± 0.021	1.381 ± 0.018
x1 = 0.2995	1.917 ± 0.014	–	–
x1 = 0.305	1.89 ± 0.024	1.581 ± 0.02	1.339 ± 0.017
x1 = 0.3489	1.843 ± 0.023	1.537 ± 0.02	1.306 ± 0.017
x1 = 0.397	1.794 ± 0.023	1.492 ± 0.019	1.273 ± 0.017
x1 = 0.4053	1.813 ± 0.013	–	–
x1 = 0.4225	1.787 ± 0.013	–	–
x1 = 0.4547	1.745 ± 0.022	1.456 ± 0.019	1.224 ± 0.016
x1 = 0.4942	1.738 ± 0.013	–	–
x1 = 0.4979	1.717 ± 0.022	1.43 ± 0.018	1.214 ± 0.016
x1 = 0.5467	1.7 ± 0.013	–	–
x1 = 0.5531	1.68 ± 0.021	–	1.183 ± 0.015
x1 = 0.5954	1.664 ± 0.021	1.385 ± 0.018	1.172 ± 0.015
x1 = 0.5956	1.674 ± 0.012	–	–
x1 = 0.6388	–	1.361 ± 0.018	1.147 ± 0.015
x1 = 0.6429	1.652 ± 0.012	–	–
x1 = 0.6954	1.619 ± 0.021	1.341 ± 0.017	1.127 ± 0.015
x1 = 0.7027	1.626 ± 0.012	–	–
x1 = 0.7088	1.626 ± 0.012	–	–
x1 = 0.7346	1.593 ± 0.02	1.325 ± 0.017	1.111 ± 0.015
x1 = 0.7911	1.602 ± 0.012	–	–
x1 = 0.7959	1.574 ± 0.02	1.31 ± 0.017	1.098 ± 0.015
x1 = 0.8414	1.569 ± 0.02	1.297 ± 0.017	1.083 ± 0.014
x1 = 0.864	1.575 ± 0.011	–	–
x1 = 0.9025	1.545 ± 0.02	1.276 ± 0.017	1.076 ± 0.014
x1 = 0.9325	1.552 ± 0.011	–	–
x1 = 0.9593	1.546 ± 0.02	1.266 ± 0.017	1.055 ± 0.014
x2 = 0.0163	1.534 ± 0.011	–	–

CCCC(=O)O + CC#N
viscosity [mPa·s], 101 kPa
Settings	x1 = 0.0598	x1 = 0.1252	x1 = 0.1971	x1 = 0.2763	x1 = 0.3641	x1 = 0.4621	x1 = 0.572	x1 = 0.6961	x1 = 0.8375
298.15 K	0.3944 ± 0.023	0.4377 ± 0.024	0.5044 ± 0.024	0.5968 ± 0.026	0.717 ± 0.028	0.8653 ± 0.031	1.039 ± 0.035	1.229 ± 0.039	1.415 ± 0.043
308.15 K	0.3452 ± 0.022	0.3849 ± 0.023	0.4455 ± 0.024	0.5285 ± 0.025	0.6349 ± 0.027	0.7632 ± 0.029	0.9084 ± 0.032	1.058 ± 0.035	1.187 ± 0.038
318.15 K	0.3146 ± 0.022	0.3681 ± 0.023	0.4272 ± 0.023	0.4922 ± 0.024	0.5632 ± 0.025	0.6398 ± 0.027	0.7209 ± 0.028	0.8039 ± 0.03	0.8836 ± 0.031

COCCO + CC#N
298 K, 101.33 kPa
Settings	viscosity [mPa·s]
x1 = 0.097	0.391 ± 0.007
x1 = 0.1987	0.455 ± 0.007
x1 = 0.2949	0.529 ± 0.008
x1 = 0.404	0.631 ± 0.009
x1 = 0.4985	0.736 ± 0.01
x1 = 0.5987	0.866 ± 0.011
x1 = 0.6932	0.991 ± 0.013
x1 = 0.7991	1.171 ± 0.015
x1 = 0.9035	1.361 ± 0.017

CCCC(C)O (stereo not given) + CC(=O)N(C)C
viscosity [mPa·s], 100 kPa
Settings	298.15 K	313.15 K
x2 = 0.0565	2.917 ± 0.12	1.821 ± 0.074
x2 = 0.1029	2.592 ± 0.11	1.693 ± 0.068
x2 = 0.2137	2.057 ± 0.083	1.432 ± 0.058
x2 = 0.3057	1.757 ± 0.071	1.276 ± 0.052
x2 = 0.409	1.528 ± 0.062	1.145 ± 0.046
x2 = 0.5031	1.387 ± 0.056	1.053 ± 0.043
x2 = 0.6045	1.255 ± 0.051	0.971 ± 0.039
x2 = 0.7015	1.158 ± 0.047	0.904 ± 0.037
x2 = 0.7996	1.068 ± 0.043	0.842 ± 0.034
x2 = 0.9005	0.987 ± 0.04	0.784 ± 0.032
x2 = 0.9581	0.943 ± 0.038	–

CC[N+](CC)(CC)CC.[OH-] + CC(=O)N(C)C
viscosity [mPa·s], 101 kPa
Settings	298.15 K	303.15 K	308.15 K	313.15 K
x1 = 0.0216	1.19	1.11	1.03	0.96
x1 = 0.0663	1.64	1.54	1.42	1.32
x1 = 0.1133	2.08	1.95	1.79	1.67
x1 = 0.1628	2.49	2.33	2.16	2.01
x1 = 0.215	2.83	2.66	2.49	2.33
x1 = 0.2422	2.99	2.81	2.64	2.47
x1 = 0.2988	3.28	3.09	2.89	2.72
x1 = 0.3899	3.63	3.43	3.23	3.04
x1 = 0.4894	3.89	3.69	3.47	3.27
x1 = 0.5986	4.08	3.87	3.63	3.44
x1 = 0.7188	4.24	4.04	3.77	3.59
x1 = 0.806	4.39	4.18	3.91	3.76
x1 = 0.8995	4.59	4.38	4.11	3.95

COCCO + CC(=O)N(C)C
viscosity [mPa·s], 101 kPa
Settings	298.15 K	308.15 K	318.15 K
x2 = 0.0301	1.535 ± 0.02	1.254 ± 0.016	1.048 ± 0.014
x2 = 0.06	1.528 ± 0.02	1.25 ± 0.016	1.046 ± 0.014
x2 = 0.0871	1.52 ± 0.019	1.247 ± 0.016	1.045 ± 0.014
x2 = 0.125	1.507 ± 0.019	1.239 ± 0.016	1.041 ± 0.014
x2 = 0.1767	1.488 ± 0.019	1.228 ± 0.016	1.034 ± 0.014
x2 = 0.225	1.466 ± 0.019	1.214 ± 0.016	1.026 ± 0.014
x2 = 0.2902	1.432 ± 0.018	1.192 ± 0.016	1.011 ± 0.013
x2 = 0.364	1.39 ± 0.018	1.164 ± 0.015	0.991 ± 0.013
x2 = 0.4602	1.329 ± 0.017	1.122 ± 0.015	0.96 ± 0.013
x2 = 0.52	1.289 ± 0.017	1.092 ± 0.014	0.938 ± 0.013
x2 = 0.5611	1.26 ± 0.016	1.07 ± 0.014	0.921 ± 0.012
x2 = 0.62	1.216 ± 0.016	1.038 ± 0.014	0.897 ± 0.012
x2 = 0.6654	1.181 ± 0.015	1.011 ± 0.013	0.876 ± 0.012
x2 = 0.725	1.135 ± 0.015	0.977 ± 0.013	0.849 ± 0.012
x2 = 0.7732	1.099 ± 0.014	0.949 ± 0.013	0.827 ± 0.011
x2 = 0.825	1.059 ± 0.014	0.919 ± 0.012	0.803 ± 0.011
x2 = 0.8847	1.014 ± 0.013	0.885 ± 0.012	0.775 ± 0.011
x2 = 0.9501	0.965 ± 0.013	0.847 ± 0.012	0.746 ± 0.01
